Measurements from article PMC6115767, “Soybean- and Lupin-Derived Peptides Inhibit DPP-IV Activity on In Situ Human Intestinal Caco-2 Cells and Ex Vivo Human Serum” (Nutrients, 2018).
No end group written: not given here.

Legend:
[1] = test system: intestinal Caco-2 cells; details: cited from earlier work
Description: Considered all of these aspects, using live intestinal Caco-2 cells, experiments were performed to investigate in detail the ability of Lup1 and Soy1 to inhibit DPP-IV activity, in the presence of BB proteolytic activity.

[2] = target: T1, DPP-IV (in situ, human intestinal Caco-2 cells) (Homo sapiens, UniProt P27487); assay: In situ DPP-IV activity assay on 2-, 4- and 6-day Caco-2 cells (Gly-Pro-AMC); details: for reduction of in situ DPP-IV activity vs control: 2-day Caco-2 cells, 100 µM peptide, 1 h pre-incubation, 50 µM Gly-Pro-AMC, 10 min, three experiments in triplicate
Description: (§1) Caco-2 cells, obtained from INSERM (Paris, France), were routinely sub-cultured at 50% density [22] and maintained at 37 °C in a 90% air/10% CO2 atmosphere in DMEM containing 25 mM of glucose, 3.7 g/L of NaHCO3, 4 mM of stable L-glutamine, 1% nonessential amino acids, 100 U/L of penicillin, and 100 µg/L of streptomycin (complete medium), supplemented with 10% heat-inactivated fetal bovine serum (FBS; Hyclone Laboratories, Logan, UT, USA).
(§2) The medium was regularly changed three times a week. Caco-2 cells DPP-IV activity was assayed on days 2, 4, and 6 from seeding.

[3] = target: T2, circulating DPP-IV in human serum (Homo sapiens, UniProt P27487); assay: Ex vivo circulating DPP-IV activity assay in human serum (Gly-Pro-AMC); format: biochemical; details: 24 h at 37 °C, 50 µM Gly-Pro-AMC final, three experiments in triplicate
T2 construct: a soluble form of DPP-IV lacking the cytoplasmic and transmembrane domains is present in plasma and other body fluids; from tissue; host or cells: human serum from a healthy volunteer
Description: Human serum samples prepared from freshly collected venous blood from a healthy volunteer were aliquoted 40 µL/well in black 96-well plates and 10 µL of each inhibitor were added for 24 h at 37 °C. […] Subsequently, 50 µL of 100 µM Gly-Pro-AMC was added to each well to achieve a final substrate concentration of 50 µM.

[4] = cited from earlier work
[5] = target: T1, DPP-IV (in situ, human intestinal Caco-2 cells)
Description: as §1, §2

T1 sequence (P27487 whole entry): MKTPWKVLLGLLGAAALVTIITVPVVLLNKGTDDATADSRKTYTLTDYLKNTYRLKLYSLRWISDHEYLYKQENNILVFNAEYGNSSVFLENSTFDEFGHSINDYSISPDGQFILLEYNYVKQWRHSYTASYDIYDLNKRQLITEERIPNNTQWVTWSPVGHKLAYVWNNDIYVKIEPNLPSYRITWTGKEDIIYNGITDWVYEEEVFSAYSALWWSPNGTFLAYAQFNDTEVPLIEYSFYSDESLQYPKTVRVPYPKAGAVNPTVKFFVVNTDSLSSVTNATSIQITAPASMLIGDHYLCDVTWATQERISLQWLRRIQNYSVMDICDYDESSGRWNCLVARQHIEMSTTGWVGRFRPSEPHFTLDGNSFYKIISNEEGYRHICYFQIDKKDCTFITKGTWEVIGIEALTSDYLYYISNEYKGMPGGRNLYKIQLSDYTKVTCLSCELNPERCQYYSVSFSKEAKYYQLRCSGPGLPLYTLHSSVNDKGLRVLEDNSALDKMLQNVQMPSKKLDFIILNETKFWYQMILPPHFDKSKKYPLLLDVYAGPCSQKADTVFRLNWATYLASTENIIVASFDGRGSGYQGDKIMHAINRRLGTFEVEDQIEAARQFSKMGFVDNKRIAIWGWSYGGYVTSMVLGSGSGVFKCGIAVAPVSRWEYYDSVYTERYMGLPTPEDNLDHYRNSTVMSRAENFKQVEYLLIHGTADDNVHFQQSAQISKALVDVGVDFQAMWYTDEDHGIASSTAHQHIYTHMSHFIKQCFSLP
T2 sequence (P27487 39-766 limits assumed): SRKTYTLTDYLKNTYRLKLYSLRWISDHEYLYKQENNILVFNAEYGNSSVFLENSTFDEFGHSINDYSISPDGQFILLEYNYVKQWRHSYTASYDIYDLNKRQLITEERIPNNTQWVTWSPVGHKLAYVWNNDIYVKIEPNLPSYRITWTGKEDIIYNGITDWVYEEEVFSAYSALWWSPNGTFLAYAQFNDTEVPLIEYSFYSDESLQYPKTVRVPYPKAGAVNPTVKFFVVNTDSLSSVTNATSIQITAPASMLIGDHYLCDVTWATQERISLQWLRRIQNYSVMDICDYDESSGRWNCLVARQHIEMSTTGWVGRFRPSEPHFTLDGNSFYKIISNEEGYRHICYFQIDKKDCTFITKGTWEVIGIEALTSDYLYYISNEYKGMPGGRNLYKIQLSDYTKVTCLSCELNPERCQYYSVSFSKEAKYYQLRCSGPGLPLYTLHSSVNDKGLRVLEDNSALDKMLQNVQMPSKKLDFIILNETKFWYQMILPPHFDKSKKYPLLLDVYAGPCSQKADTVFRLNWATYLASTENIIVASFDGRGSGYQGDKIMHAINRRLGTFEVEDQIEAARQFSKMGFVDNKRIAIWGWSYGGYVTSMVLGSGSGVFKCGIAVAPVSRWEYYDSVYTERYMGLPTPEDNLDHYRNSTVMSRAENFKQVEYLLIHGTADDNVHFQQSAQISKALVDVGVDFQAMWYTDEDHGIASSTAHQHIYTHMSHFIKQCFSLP

Molecule | stability to apical proteases (in words) ([1]; differentiated Caco-2 cells, apical proteases, after 4 h of incubation) | absorption by Caco-2 cells (in words) ([1]; differentiated intestinal Caco-2 cells) | IC50 [2] | in situ IC50 compared with in vitro IC50 (in words) ([2]; 2-day Caco-2 IC50 vs in vitro purified enzyme IC50) | reduction of in situ DPP-IV activity vs control [2] | decrease of circulating DPP-IV activity vs control ([3]; 100 µM peptide) | decrease of circulating DPP-IV activity vs control ([3]; 300 µM peptide) | absorption in vivo (in words) [4] | in situ IC50 compared with in vitro IC50 [5] | breakdown fragments formed ([1]; Caco-2 cells, already after 2 h of incubation) | susceptibility to intestinal endopeptidases (in words) ([1]; Caco-2 cells)
LTFPGSAED [Lup1] | not degraded | absorbed intact | 207 µM | in agreement with that obtained with the in vitro assay | 50% | 18.1% | 24.7% |  |  |  | 
N[C@@H](CC(=O)N1CCn2c(nnc2C(F)(F)F)C1)Cc1cc(F)c(F)cc1F [sitagliptin, Sitagliptin] |  |  |  |  |  |  |  | rapidly absorbed |  |  | 
IAVPTGVA [Soy1] |  |  | 223 µM |  | 50% | 27.7% | 35.0% |  | 2 fold | IAVPT and AVPTGVA | susceptible to the action of intestinal endopeptidases
